EC50, inhibition and cytotoxicity data for seven compounds are collected here from US6107316A, “Method for treating protozoal infections” (priority 1998, dated 2000).

In one data set the test system is Tetrahymena pyriformis. The data set is described as follows: in vitro growth inhibitory activity against the ciliate Tetrahymena pyriformis. Format: cell-based, Tetrahymena pyriformis (ATCC strain 30005). Particulars: read-out: EC50 Tetrahymena pyriformis. The protocol: Compounds were evaluated for in vitro growth inhibitory activity against the ciliate Tetrahymena pyriformis, which was used as an indicator organism for the Apicomplexia since by several criteria the ciliates and Apicomplexa are closely related (Edlind T. D. et al., Mol. Phylogenet. Evol. vol. 5, pp. 359-367, 1996). T. pyriformis (ATCC strain 30005) was grown in 1 ml ATCC medium 357 at 25° C. in 4 ml polyallomer culture tubes without shaking. Compounds were dissolved in dimethylsufoxide (DMSO) and added to the cultures (containing 3,000 cells/ml) such that the final DMSO concentration was 0.1-0.3%. […] Parasitol. vol. 84, pp. 355-370, 1996) and Cryptosporidium parvum (Arrowood et al., FEMS Microbial. Lett., vol. 136, pp. 245-249, 1996) were tested for comparison.

For another data set, the system named is Giardia lamblia. The data set is described as follows: in vitro growth inhibitory activity against Giardia lamblia. Format: cell-based. Conditions: Giardia duodenalis; concentration required to inhibit growth by 50%. The protocol: 35, pp. 2198-2202 (1991). EC50 values for test compounds, expressed in parts per million (ppm), were calculated from dose response curves and are presented in Table 4. As used herein, the terminology "EC50" means the concentration of test compound required to inhibit growth by 50% are compared to a control lacking the test compound. Metronidazole was included as a standard in the tests for comparative purposes.

The subject of the next data set is Leishmania major. Put plainly: in vitro growth inhibitory activity against L. major promastigotes. Format: cell-based. The text has this: 35, pp. 2198-2202 (1991).
Data set [1] deals with Toxoplasma gondii. Put plainly: growth inhibition of T. gondii in HFF host cells ([3H]-uracil incorporation). Format: cell-based. Conditions: Toxoplasma gondii; for inhibition at 0.5 µg/mL: 0.5 μg/ml. On the procedure: (§1) Compounds were tested for it vitro growth inhibitory activity against Toxoplasma gondii replication in L929 (L929-ATCC CCL 1, mouse connective tissue) or HFF (human foreskin fibroblast) host cells using the [^3 H]-uracil incorporation technique as follows. Host cells were grown in 96-well flat-bottom microtiter plates at 37° C in a 5% carbon dioxide environment in modified Eagle's medium containing penicillin, streptomycin and 10% fetal equine serum. Wells containing a homogeneous confluent monolayer of host cells were infected with T. gondii tachyzoites at a ratio of 3 parasites per cell (approximately 6×10^4 tachyzoites per well containing 100 μl of medium). […] Two hours post infection, the cultures were washed to remove free parasites and the various dilutions of test compound were added. Cells were subsequently collected at 24, 48 and 72 hours. Four hours prior to each harvesting 50 Al of [^3 H]-uracil (1 μCi) was added. Cells were collected using a cell harvester and incorporated radioactivity was measured using a scintillation counter. […]

For the next data set, the system named is Cryptosporidium parvum. Put plainly: growth inhibitory activity against C. parvum in host MDBKF5D2 cells (immunofluorescence). Format: cell-based. Particulars: Cryptosporidium parvum, 48 h. The protocol: (§2) Compounds were tested for in vitro growth inhibitory activity against C. parvum grown in host MDBKF5D2 cells and for toxicity towards the host cells as follows. […] To test for toxicity towards the host cells, the media containing test compound (200 μl) were introduced into two wells of a 96 well microtiter plate containing confluent MDBKF5D2 cell monolayers and two wells without monolayers, and incubated at 37° C. in an 8% carbon dioxide environment. After 48 hours, the tetrazolium salt MTS (Owen's solution) and phenazine methosulfate were added to each well at concentrations of 333 μg/ml and 25 μM, respectively. The plate was returned to the incubator in the dark to develop for 2 hours, then 100 μl of each supernatant was transferred to a new microtiter plate and read spectrophotometrically in a plate reader at a wavelength of 490 nm. Percent toxicity was calculated by subtracting the mean optical density (OD) of the drug supernatants from the OD of medium control supernatants (no drug), dividing by the OD of the medium control, and multiplying by 100. To test for growth inhibitory activity against C. parvum, 3×10^4 oocysts per well were incubated in mentioned concentrations of each drug at 37° C. (8% CO2) on confluent MDBKF5D2 cell monolayers in 96 well microtiter plates. After 48 hours, the level of infection in each well was determined by means of an immunofluorescence assay. Percent inhibition of growth was calculated by subtracting the mean parasite count in the wells containing test compound from the mean parasite count in the medium control wells (no test compound), dividing by the mean parasite count in the medium control wells, and multiplying by 100. Paromomycin was included in the test as a standard.

Data set [2] deals with Toxoplasma gondii. Put plainly: growth inhibition of T. gondii in L929 host cells ([3H]-uracil incorporation). Particulars: Toxoplasma gondii, L929 host cells, read-out: % Inhibition; for inhibition at 0.5 µg/mL: 0.5 μg/ml; for inhibition at 5 µg/mL: 5.0 μg/ml. Format: cell-based. On the procedure: as §1
Data set [3] in a line: toxicity towards MDBKF5D2 host cells (MTS). Particulars: bovine, mdbkf5d2 cells, Cytotoxicity (percent toxicity). On the procedure:
as §2

Data set [4] can be described thus: cytotoxicity towards L929 host cells (Cell Titer 96). Particulars: mouse, % Inhibition of host cell growth (values in parenthesis). On the procedure: (§3) Cytotoxicity of the test compounds towards host cells was determined using the Cell Titer 96™ it (Promega Corporation, Madison, Wis.) as follows. Cells were seeded at a concentration of 5×10^3 cells per well containing 100 μl of medium in 96-well flat-bottom microtiter plates and incubated at 37° C. in a 5% carbon dioxide environment for 4 hours. Dilutions of the test compounds prepared as described above were then added, and incubation continued for 24, 48 or 72 hours. Four hours before each of these time points the growth medium containing test compound was replaced with 100 μl of fresh medium followed by addition of 16 μl of the kit dye solution. After incubation at 37° C. for another 4 hours, 100 μl of the kit solubilization/stop solution was added to each well, the contents of the wells were mixed and the plates kept 1 hour at room temperature. The plates were then read spectrophotometrically in a plate reader at a wavelength of 570 nm. […] Atovaquone was included in the test as a standard.

Data set [5] in a line: cytotoxicity towards HFF host cells (Cell Titer 96). Particulars: human, % Inhibition of host cell growth (values in parenthesis). The protocol: as §3
The mark [6] stands for this setting: 24 h, HFF host cells, 24 hours, read-out: % Inhibition.
[7] abbreviates: 24 h, HFF host cells, 5.0 μg/ml, 24 hours, read-out: % Inhibition.
Setting [8] is: 48 h, HFF host cells, 48 hours, read-out: % Inhibition.
Setting [9] is: 72 h, HFF host cells, 72 hours, read-out: % Inhibition.
[10] abbreviates: 72 h, HFF host cells, 5.0 μg/ml, 72 hours, read-out: % Inhibition.

≈ marks a conversion by molar mass, not a printed value. Where two headings read alike, the source gives them in different places.

As for `CCC(C)(NC(=O)c1cc(Cl)cc(Cl)c1)C(=O)CSC#N` (stereo not shown) [Compound 7], the EC50 in the data set with Tetrahymena pyriformis (24 hours, 25° C.) turned out to be 0.07 µg/mL (≈ 0.203 µM); with Giardia lamblia it was 0.05 µg/mL (≈ 0.145 µM); in the data set with Leishmania major, 0.6 µg/mL (≈ 1.74 µM).

Consider `CCC(C)(NC(=O)c1cc(Cl)cc(Cl)c1)C(=O)C(Br)Br` (stereo not shown) [Compound 4], for which the concentration for a half-maximal effect (EC50) amounted to 0.1 µg/mL (≈ 0.224 µM) in the data set with Tetrahymena pyriformis (24 hours, 25° C.); 0.3 µg/mL (≈ 0.673 µM) in the data set with Giardia lamblia; 0.2 µg/mL (≈ 0.448 µM) with Leishmania major.

In the case of `CCC(C)(NC(=O)c1cc(Cl)c2ncoc2c1)C(=O)CCl` (stereo not shown) [Compound 16], the EC50 in the data set on Tetrahymena pyriformis (24 hours, 25° C.) was 0.6 µg/mL (≈ 1.82 µM); in the data set on Giardia lamblia, 2 µg/mL (≈ 6.08 µM); in the data set with Leishmania major it was 7 µg/mL (≈ 21.3 µM).

Consider `CCC(C)(NC(=O)c1cc(Cl)c(N)c(C=NOC)c1)C(=O)CCl` (stereo not shown) [Compound 6, 4-amino-3-chloro-5-methoxyiminomethyl-N-(3-chloro-1-ethyl-1-methyl-2-oxopropyl)benzamide], for which the 50% effective concentration (EC50) in the data set on Tetrahymena pyriformis (24 hours, 25° C.) is 0.02 µg/mL (≈ 0.0555 µM); in the data set with Giardia lamblia, 0.009 µg/mL (≈ 0.025 µM); in the data set on Leishmania major it was 0.6 µg/mL (≈ 1.67 µM).

With `CCC(C)(NC(=O)c1cc(F)cc(F)c1)C(=O)CCl` (stereo not shown) [Compound 12], the inhibition at 0.5 µg/mL is 53.4% in the data set with Toxoplasma gondii [1] (setting [6]); 95.3% in the data set with Toxoplasma gondii [1] (setting [8]); 91.6% in the data set on Toxoplasma gondii [1] (setting [9]); 42% with Toxoplasma gondii [2] (L929, 24 h, 24 hours); 77.6% with Toxoplasma gondii [2] (L929, 48 h, 48 hours); 59% in the data set on Toxoplasma gondii [2] (L929, 72 h, 72 hours). Moreover, the inhibition at 5 µg/mL in the data set on Toxoplasma gondii [1] (setting [7]) is 84.4%; in the data set with Toxoplasma gondii [1] (48 h), 97.3%; in the data set on Toxoplasma gondii [1] (setting [10]), 99.8%; with Toxoplasma gondii [2] (L929, 24 h, 24 hours) it was 2.8%; in the data set on Toxoplasma gondii [2] (L929, 48 h, 48 hours) it was 55%; with Toxoplasma gondii [2] (L929, 72 h, 72 hours), 86.2%. Further, in the data set with Cryptosporidium parvum, the inhibition at 0.1 µM came out at 9.4%. Also, the inhibition at 1 µM with Cryptosporidium parvum stood at 7.2%. For the same compound, the inhibition at 10 µM in the data set with Cryptosporidium parvum was found to be 21.3%. The inhibition at 100 µM with Cryptosporidium parvum stood at 88.9%. Moreover, the cytotoxicity at 48 h, 0.1 µM in data set [3] amounted to 11.2%. This compound also registered a cytotoxicity at 48 h, 1 µM in data set [3] of 2.5%. For the same compound, the cytotoxicity at 48 h, 10 µM in [3] came to 9.9%. The compound also returned a cytotoxicity at 48 h, 100 µM in [3] of 9.9%. In addition, the inhibition at 24 h was found to be 8% in [4] (L929, 0.5 μg/ml); 18.9% in [4] (L929, 5.0 μg/ml); 4.6% in [5] (0.5 μg/ml); 7.7% in [5] (5.0 μg/ml). Besides, the inhibition at 48 h in data set [4] (L929, 0.5 μg/ml) was 0%; in data set [4] (L929, 5.0 μg/ml) it was 66.8%; in data set [5] (0.5 μg/ml), 5.4%; in data set [5] (5.0 μg/ml), 29.1%. Further, the inhibition at 72 h in data set [4] (L929, 0.5 μg/ml) was found to be 0%; in data set [4] (L929, 5.0 μg/ml), 88%; in [5] (0.5 μg/ml), 0%; in data set [5] (5.0 μg/ml) it was 41.3%.

In the case of `CCC(C)(NC(=O)c1cc(Cl)cc(Cl)c1)C(=O)CN=C=S` (stereo not shown) [Compound 8], the half-maximal effective concentration (EC50) in the data set on Tetrahymena pyriformis (24 h) worked out at 0.07 µg/mL (≈ 0.203 µM); in the data set with Giardia lamblia, 0.2 µg/mL (≈ 0.579 µM); in the data set on Leishmania major, 0.7 µg/mL (≈ 2.03 µM).

Regarding `CCC(C)(NC(=O)c1cc(Br)c(N)c(Br)c1)C(=O)CCl` (stereo not shown) [Compound 14], the inhibition at 0.5 µg/mL was determined as 63.9% in the data set with Toxoplasma gondii [1] (setting [6]); 96.1% in the data set on Toxoplasma gondii [1] (setting [8]); 77.8% with Toxoplasma gondii [1] (setting [9]); 29.3% in the data set with Toxoplasma gondii [2] (L929, 24 h, 24 hours); 79.8% with Toxoplasma gondii [2] (L929, 48 h, 48 hours); 84.9% in the data set with Toxoplasma gondii [2] (L929, 72 h, 72 hours). For the same compound, the inhibition at 5 µg/mL in the data set on Toxoplasma gondii [1] (setting [7]) worked out at 87.4%; in the data set with Toxoplasma gondii [1] (48 h, HFF host cells, 5.0 μg/ml, 48 hours, read-out: % Inhibition), 99.7%; with Toxoplasma gondii [1] (setting [10]) it was 99.1%; in the data set on Toxoplasma gondii [2] (L929, 24 h, 24 hours), 6.9%; in the data set on Toxoplasma gondii [2] (L929, 48 h, 48 hours), 61.2%; with Toxoplasma gondii [2] (L929, 72 h, 72 hours), 79.7%. The compound further yielded an inhibition at 0.1 µM in the data set with Cryptosporidium parvum of 2.1%. Also, in the data set with Cryptosporidium parvum, the inhibition at 1 µM was determined as 11.3%. The compound further yielded an inhibition at 10 µM with Cryptosporidium parvum of 35.4%. The same compound displayed an inhibition at 100 µM in the data set with Cryptosporidium parvum of 86.7%. The compound also showed a cytotoxicity at 48 h, 0.1 µM in [3] of 21%. In data set [3], this compound returned a cytotoxicity at 48 h, 1 µM of 6.1%. Moreover, the cytotoxicity at 48 h, 10 µM in [3] was 3.9%. The cytotoxicity at 48 h, 100 µM in [3] was found to be 22.3%. The inhibition at 24 h in [4] (L929, 0.5 μg/ml) turned out to be 8.9%; in data set [4] (L929, 5.0 μg/ml), 21.8%; in [5] (0.5 μg/ml) it was 4.1%; in data set [5] (5.0 μg/ml) it was 5.8%. Moreover, the inhibition at 48 h turned out to be 0% in data set [4] (L929, 0.5 μg/ml); 58.7% in [4] (L929, 5.0 μg/ml); 3.7% in data set [5] (0.5 μg/ml); 31.8% in data set [5] (5.0 μg/ml). Moreover, the inhibition at 72 h in data set [4] (L929, 0.5 μg/ml) was found to be 0%; in data set [4] (L929, 5.0 μg/ml), 77.6%; in [5] (0.5 μg/ml), 0%; in data set [5] (5.0 μg/ml), 53.6%.

The term EC50 denotes the concentration needed to bring the measured effect to its halfway point. The inhibition is the percentage by which the read-out fell short of the control.
